The source of these data is ChEMBL document CHEMBL1126468, “Antineoplastic bicyclicsulfonylureas” (Bioorg Med Chem Lett, 1992).

The first assay deals with Mus musculus. Briefly: Percent inhibition is the ratio of tumor weight of treated animals at a dose 80 mg/kg given daily to 8 mice perorally versus the untreated control mice infected with 6C3HED lymphosarcoma. As to conditions: route oral. Format: functional.
Usually inhibition in vivo stands for the relative decrease from the control value, in per cent. `O=C(Nc1ccc(Cl)cc1)NS(=O)(=O)c1ccc2sccc2c1`: the inhibition in vivo at 80 mg/kg was 44%.

Test system in the next assay: not listed separately
Briefly: Inhibition of tumor growth in 6C3HED lymphosarcoma inoculated mice following 150 mg/kg p.o. o.d. Format: functional. As to conditions: Mus musculus, route oral.
Turning to `O=C(Nc1ccc(Cl)cc1)NS(=O)(=O)c1ccc2cc[nH]c2c1`, testing at 150 mg/kg gave an inhibition in vivo of 37%.
Same read-out and setting: in the case of `O=C(Nc1ccc(Cl)cc1)NS(=O)(=O)c1ccc2occc2c1` it was 100%; in that of `Cc1ccc2sc(S(=O)(=O)NC(=O)Nc3ccc(Cl)cc3)cc2c1`, 10%; in that of `COc1cc(S(=O)(=O)NC(=O)Nc2ccc(Cl)cc2)cc2ccoc12`, 51%.
As to `Cc1ccc(NC(=O)NS(=O)(=O)c2ccc3occc3c2)cc1`, the inhibition in vivo at 150 mg/kg was determined as 84%.
On to `Cc1cccc2cc(S(=O)(=O)NC(=O)Nc3ccc(Cl)cc3)oc12`, for which the inhibition in vivo at 150 mg/kg was 21%.
Consider `O=C(Nc1ccc(Cl)cc1)NS(=O)(=O)c1cccc2occc12`, for which 150 mg/kg produced 84% inhibition in vivo.
On the same count and under the same terms, to `O=C(Nc1ccc(Cl)cc1)NS(=O)(=O)c1cc2ccccc2[nH]1` belongs 26%; to `O=C(Nc1ccc(Cl)cc1)NS(=O)(=O)c1csc2ccccc12`, 43%.
Molecule `O=C(Nc1ccc(Cl)cc1)NS(=O)(=O)c1cc2cc(Cl)ccc2o1` returned an inhibition in vivo at 150 mg/kg of 40%.
On to `Cc1ccc2oc(S(=O)(=O)NC(=O)Nc3ccc(Cl)cc3)cc2c1`, for which at 150 mg/kg the inhibition in vivo was 6%.
The molecule `Cc1cc2cc(S(=O)(=O)NC(=O)Nc3ccc(Cl)cc3)ccc2o1` came in with an inhibition in vivo at 150 mg/kg of 57%.
Still for that read-out and setting: in the case of `Cc1ccc(NC(=O)NS(=O)(=O)c2cc3ccccc3o2)cc1` it was 11%.
As to `O=C(Nc1ccc(Cl)cc1)NS(=O)(=O)c1cc2ccccc2o1`, the inhibition in vivo at 150 mg/kg is 84%.
The same measure, in the same setting: in the case of `O=C(Nc1ccc(Br)cc1)NS(=O)(=O)c1cc2ccccc2o1` it was 48%; in that of `O=C(Nc1ccc(Cl)c(Cl)c1)NS(=O)(=O)c1cc2ccccc2o1`, 28%; in that of `COc1ccc2oc(S(=O)(=O)NC(=O)Nc3ccc(Cl)cc3)cc2c1`, 25%.
Take `O=C(Nc1ccc(Cl)cc1)NS(=O)(=O)c1cc2cccc(Br)c2o1`: the inhibition in vivo at 150 mg/kg came out at 18%.
Still for that read-out and setting: to `Cc1coc2ccc(S(=O)(=O)NC(=O)Nc3ccc(Cl)cc3)cc12` belongs 44%.
For the molecule `Cc1cc(S(=O)(=O)NC(=O)Nc2ccc(Cl)cc2)cc2ccoc12`, the inhibition in vivo at 150 mg/kg was found to be 89%.
On the same count and under the same terms, to `O=C(Nc1ccc(Cl)cc1)NS(=O)(=O)c1cc2ccccc2s1` belongs 47%.

Another assay relates to Mus musculus. The experiment in a line: Percent inhibition is the ratio of tumor weight of treated animals at a dose 160 mg/kg given daily to 8 mice perorally versus the untreated control mice infected with 6C3HED lymphosarcoma. The note with it: route oral. Format: functional.
For `O=C(Nc1ccc(Cl)cc1)NS(=O)(=O)c1ccc2ccoc2c1`, the inhibition in vivo at 160 mg/kg came to 100%.
